Reference: patent publication US20220251054A1, “Analogues and Methods of Treating Rett Syndrome” (The Regents of the University of California, priority 2019, published 2022)
Entries after “also recorded” stand apart in the source; their conditions may differ.

Key:
Mutant IPSCs = format: cell-based; details: 10 μM, 48 hours
Mut Cx+GE organoids = test: Extracellular recording of local field potentials (LFP) in Rett syndrome fusion organoids; format: cell-based, human; details: for high frequency oscillations (HFOs, about 200-500 Hz) / lower frequency / gamma oscillations (about 40-80 Hz) / spiking activity / spike frequency: Mut Cx+GE organoids treated 48-hr; for high frequency oscillations (HFOs, about 200-500 Hz) / lower frequency / gamma oscillations (about 40-80 Hz): 2 mM VPA or 10 μM Pifithrin-α; for spiking activity / spike frequency: 2 mM sodium valproate (VPA) or 10 μM Pifithrin-α
Cx+GE organoids = test: Live organoid calcium imaging (GCaMP6f) with GABAA receptor antagonist; format: cell-based, human; details: for synchronization of calcium transients / neural activities: Cx+GE organoids, bicuculline methiodide 100 μM or gabazine 25 μM
Cx+Cx organoids = test: as above; format: cell-based, human; details: for synchronization of calcium transients / neural activities: Cx+Cx organoids, bicuculline methiodide 100 μM or gabazine 25 μM
P53 = P53 (Homo sapiens, UniProt P04637); details: cited from earlier work
Chain of P53 (P04637 whole entry): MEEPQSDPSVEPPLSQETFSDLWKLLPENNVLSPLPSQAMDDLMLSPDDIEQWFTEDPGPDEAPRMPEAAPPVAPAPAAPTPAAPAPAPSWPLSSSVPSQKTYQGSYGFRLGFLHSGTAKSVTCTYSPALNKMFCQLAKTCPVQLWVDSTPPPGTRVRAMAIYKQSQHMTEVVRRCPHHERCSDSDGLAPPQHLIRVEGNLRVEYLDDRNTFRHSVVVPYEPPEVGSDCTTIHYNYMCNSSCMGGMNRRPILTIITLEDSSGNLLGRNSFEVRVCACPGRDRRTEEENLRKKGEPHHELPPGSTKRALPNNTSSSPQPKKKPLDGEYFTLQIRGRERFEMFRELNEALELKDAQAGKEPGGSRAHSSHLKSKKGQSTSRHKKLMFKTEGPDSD

[1] = system: MECP2− (Mutant) interneurons; test: P21 protein immunofluorescence (senescence marker) in treated neurons; format: cell-based; details: 10 μM, 48 hours, WT and Mutant interneurons

Structure (SMILES)	increased levels of P53 target genes (RT-PCR) (Mutant IPSCs)	high frequency oscillations (HFOs, about 200-500 Hz) (Mut Cx+GE organoids)	lower frequency / gamma oscillations (about 40-80 Hz) (Mut Cx+GE organoids)	spiking activity / spike frequency (Mut Cx+GE organoids)	synchronization of calcium transients / neural activities (Cx+GE organoids)	synchronization of calcium transients / neural activities (Cx+Cx organoids)	other results
Cc1ccc(-c2cn3c4c(sc3n2)CCCC4)cc1 [Pifithrin β, 2-(p-tolyl)-5,6,7,8-tetrahydroben-zo[d]imidazo[2,1-b]thiazole]	abrogated						
CCCC(CCC)C(=O)[O-].[Na+] [VPA, sodium valproate]		neither decreased HFOs	nor restored lower frequency oscillations	significantly reduced spiking activity			
CC(=O)/N=c1\sc2c(n1CC(=O)c1ccc(C)cc1)CCCC2 [Pifithrin α-Ac, N-(3-(2-oxo-2-(p-tolyl)ethyl)-4,5,6,7-tetrahydrobenzo[d]thiazol-2(3H)-ylidene)aceta-mide]	abrogated						
C[N+]1(C)CCc2cc3c(cc2[C@H]1[C@@H]1OC(=O)c2c1ccc1c2OCO1)OCO3.[I-] [BMI, bicuculline methiodide]					spontaneous synchronization of neural activities; also recorded: epochs of nearly complete synchronization of calcium transients	minimal effect; also recorded: no such effect	hierarchical clustering: groups of neurons with correlated activity (Cx+GE organoids; Cx+GE organoids following BMI treatment): large groups of neurons with highly correlated activity; hierarchical clustering: groups of neurons with correlated activity (Cx+Cx organoids; Cx+Cx organoids following BMI treatment): only small groups
Cc1ccc(C(=O)Cn2c3c(sc2=N)CCCC3)cc1 [Pifithrin α, 2-(2-imino-4,5,6,7-tetrahydrobenzo[d]thiazol-3(2H)-yl)-1-(p-tolyl)ethan-1-one hydrogen bromide]	abrogated	suppressed HFOs	re-emergence of gamma oscillations	similarly reduced spike frequency			P53 inhibition (P53): effective P53 inhibitor; cell senescence (P21 protein level by immunofluorescence) [1]: block cell senescence due to increased p53 activity; oscillatory activity (extracellular recording) (Mut Cx+GE organoids; Mut Cx+GE organoids (RTT) exposed to 10 μM for 48 hours, Day 100): reveal oscillatory activity at multiple frequencies; sustained oscillatory activity (PSD) (Mut Cx+GE organoids; Mut Cx+GE organoids exposed to 100 μM for 48 hours, Day 100): shows rescue of sustained oscillatory activity
COc1ccc(-c2ccc(=N)n(CCCC(=O)O)n2)cc1 [Gabazine]					epochs of nearly complete synchronization of calcium transients	no such effect	
